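Dose response: 5 concentrations. Exposure: 48 h. Format: 96-well plates. Endpoint: linear interpolation; highest concentration if not reached. Abbreviation: GI50, concentration required for 50% inhibition of growth. TGI marks complete inhibition of growth.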
Key:
Test in all cases: DTP human tumour cell line panel, 48 h
A549 NSCLC = test system: A549 NSCLC
RPMI-8226 leukemia = test system: RPMI-8226 leukemia
UACC-257 melanoma = test system: UACC-257 melanoma
CAKI-1 renal = test system: CAKI-1 renal
HOP-62 NSCLC = test system: HOP-62 NSCLC
IGROV1 ovarian = test system: IGROV1 ovarian
NCI-H522 lung = test system: NCI-H522 lung
U251 CNS = test system: U251 CNS
SNB-19 CNS = test system: SNB-19 CNS
SK-MEL-5 melanoma = test system: SK-MEL-5 melanoma

`COc1cc2c(cc1OC)C1Cc3cc(OC)c(OC)cc3N1CC2` (stereo not given) was tested. Which TGI (A549 NSCLC) did it give?
The TGI was 79.9 µM.

What about the TGI (RPMI-8226 leukemia) of the same compound?
The TGI was 88 µM.

And the TGI (UACC-257 melanoma)?
Its TGI is > 100 µM.

What about the TGI (CAKI-1 renal) of the same compound?
Its TGI is 88.5 µM.

And the TGI (HOP-62 NSCLC)?
The TGI was 84.9 µM.

What about the TGI (IGROV1 ovarian) of the same compound?
Its TGI is > 100 µM.

And the TGI (NCI-H522 lung)?
Its TGI is 35 µM.

What about the TGI (U251 CNS) of the same compound?
Its TGI is > 100 µM.

What about the TGI (SNB-19 CNS) of the same compound?
Its TGI is > 100 µM.

Which TGI (A549 NSCLC) does the source give for `Cc1ccc(C)c(N2C(=O)C(=O)C(c3nc4ccccc4o3)/C(=N/N)C2=O)c1` (stereo not given) here?
Its TGI is > 100 µM.

And the TGI (UACC-257 melanoma)?
Its TGI is > 100 µM.

What about the TGI (CAKI-1 renal) of the same compound?
Its TGI is > 100 µM.

And the TGI (SK-MEL-5 melanoma)?
Its TGI is > 100 µM.

What about the TGI (HOP-62 NSCLC) of the same compound?
Its TGI is > 100 µM.

And the TGI (IGROV1 ovarian)?
The TGI was > 100 µM.

What about the TGI (NCI-H522 lung) of the same compound?
The TGI was > 100 µM.

And the TGI (U251 CNS)?
The TGI was > 100 µM.

What about the TGI (SNB-19 CNS) of the same compound?
The TGI was > 100 µM.

`O=C1C2[C@@H](C(=O)N1c1ccc(Br)cc1)C13C(=CC2([N+](=O)[O-])[C@@H]2C(=O)N(c4ccc(Br)cc4)C(=O)[C@@H]21)c1ccccc1N3c1ccccc1` (stereo not given in full) was tested. Which TGI (A549 NSCLC) did it give?
Its TGI is > 100 µM.

What about the TGI (RPMI-8226 leukemia) of the same compound?
Its TGI is > 100 µM.

And the TGI (UACC-257 melanoma)?
Its TGI is > 100 µM.

And the TGI (NCI-H522 lung)?
The TGI was > 100 µM.

What about the TGI (U251 CNS) of the same compound?
The TGI was > 100 µM.

What about the TGI (SNB-19 CNS) of the same compound?
Its TGI is > 100 µM.

`Nc1ccc(C2=N/C(=C\c3cccc(N)c3)C(=O)O2)cc1` was tested. Which TGI (A549 NSCLC) did it give?
The TGI was > 100 µM.

What about the TGI (CAKI-1 renal) of the same compound?
Its TGI is > 100 µM.

And the TGI (SK-MEL-5 melanoma)?
The TGI was > 100 µM.

What about the TGI (IGROV1 ovarian) of the same compound?
The TGI was > 100 µM.

And the TGI (NCI-H522 lung)?
Its TGI is > 100 µM.

And the TGI (U251 CNS)?
The TGI was > 100 µM.

What about the TGI (SNB-19 CNS) of the same compound?
Its TGI is > 100 µM.

With `N#CC(C#N)=C1CCCOc2c1ccc1ccccc21` as the compound, how does the GI50 (A549 NSCLC) read?
Its GI50 is > 100 µM.

What about the TGI (A549 NSCLC) of the same compound?
Its TGI is > 100 µM.

And the GI50 (RPMI-8226 leukemia)?
The GI50 was 24.5 µM.

What about the TGI (RPMI-8226 leukemia) of the same compound?
The TGI was 65.1 µM.

What about the GI50 (CAKI-1 renal) of the same compound?
Its GI50 is > 100 µM.

And the TGI (CAKI-1 renal)?
The TGI was > 100 µM.

And the GI50 (HOP-62 NSCLC)?
Its GI50 is 79.5 µM.

What about the TGI (HOP-62 NSCLC) of the same compound?
The TGI was > 100 µM.

What about the GI50 (IGROV1 ovarian) of the same compound?
The GI50 was > 100 µM.

And the TGI (IGROV1 ovarian)?
Its TGI is > 100 µM.

What about the GI50 (NCI-H522 lung) of the same compound?
The GI50 was > 100 µM.

What about the TGI (NCI-H522 lung) of the same compound?
Its TGI is > 100 µM.

What about the GI50 (SNB-19 CNS) of the same compound?
The GI50 was 94.3 µM.

And the TGI (SNB-19 CNS)?
The TGI was > 100 µM.

How did the TGI (A549 NSCLC) turn out when `COC(=O)C(=O)CC(=O)c1cccc(OC)c1` was run?
The TGI was > 100 µM.

What about the TGI (RPMI-8226 leukemia) of the same compound?
The TGI was > 100 µM.

What about the TGI (UACC-257 melanoma) of the same compound?
The TGI was > 100 µM.

And the TGI (CAKI-1 renal)?
The TGI was > 100 µM.

What about the TGI (SK-MEL-5 melanoma) of the same compound?
The TGI was > 100 µM.

What about the TGI (HOP-62 NSCLC) of the same compound?
Its TGI is > 100 µM.

What about the TGI (U251 CNS) of the same compound?
Its TGI is > 100 µM.

What about the TGI (SNB-19 CNS) of the same compound?
Its TGI is > 100 µM.

Which TGI (A549 NSCLC) does the source give for `O=[N+]([O-])c1ccc(Sc2c3ccccc3nc3ccccc23)cn1` here?
Its TGI is > 100 µM.

What about the TGI (UACC-257 melanoma) of the same compound?
Its TGI is 31.8 µM.

And the TGI (CAKI-1 renal)?
The TGI was 11.7 µM.

What about the TGI (SK-MEL-5 melanoma) of the same compound?
The TGI was > 100 µM.

What about the TGI (HOP-62 NSCLC) of the same compound?
The TGI was > 65.7 µM.

And the TGI (IGROV1 ovarian)?
The TGI was > 64.7 µM.

What about the TGI (NCI-H522 lung) of the same compound?
Its TGI is 10.8 µM.

What about the TGI (U251 CNS) of the same compound?
The TGI was > 60.1 µM.

And the TGI (SNB-19 CNS)?
Its TGI is > 66.6 µM.

What does the source list for `NCCN.O=C([O-])[O-].O=C([O-])[O-].[Co+3].[K+]`?
GI50 (A549 NSCLC): > 100 µM; TGI (A549 NSCLC): > 100 µM; GI50 (RPMI-8226 leukemia): > 100 µM; TGI (RPMI-8226 leukemia): > 100 µM; GI50 (UACC-257 melanoma): > 100 µM; TGI (UACC-257 melanoma): > 100 µM; GI50 (SK-MEL-5 melanoma): > 100 µM; TGI (SK-MEL-5 melanoma): > 100 µM; GI50 (HOP-62 NSCLC): > 100 µM; TGI (HOP-62 NSCLC): > 100 µM; GI50 (IGROV1 ovarian): > 100 µM; TGI (IGROV1 ovarian): > 100 µM; GI50 (NCI-H522 lung): > 100 µM; TGI (NCI-H522 lung): > 100 µM; GI50 (U251 CNS): > 100 µM; TGI (U251 CNS): > 100 µM; GI50 (SNB-19 CNS): > 100 µM; TGI (SNB-19 CNS): > 100 µM

For `COC(=O)c1c[nH]cc1CCCCc1c[nH]cc1C(=O)OC`, which TGI (A549 NSCLC) is on record?
Its TGI is > 100 µM.

What about the TGI (UACC-257 melanoma) of the same compound?
Its TGI is > 100 µM.

And the TGI (CAKI-1 renal)?
The TGI was > 100 µM.

And the TGI (HOP-62 NSCLC)?
The TGI was > 100 µM.

And the TGI (IGROV1 ovarian)?
Its TGI is > 100 µM.

What about the TGI (NCI-H522 lung) of the same compound?
The TGI was > 100 µM.

And the TGI (U251 CNS)?
Its TGI is > 100 µM.

And the TGI (SNB-19 CNS)?
Its TGI is > 100 µM.

Which results are given for `CC12CCC(=O)N1c1cccnc1N2` (stereo not given)?
TGI (A549 NSCLC): > 100 µM; TGI (RPMI-8226 leukemia): > 100 µM; TGI (UACC-257 melanoma): > 100 µM; TGI (CAKI-1 renal): > 100 µM; TGI (SK-MEL-5 melanoma): > 100 µM; TGI (HOP-62 NSCLC): > 100 µM; TGI (IGROV1 ovarian): > 100 µM; TGI (NCI-H522 lung): > 100 µM; TGI (U251 CNS): > 100 µM

With `CCc1nc(Cl)c(Cl)c(Cl)n1` as the compound, how does the TGI (A549 NSCLC) read?
The TGI was > 100 µM.

What about the TGI (RPMI-8226 leukemia) of the same compound?
Its TGI is > 100 µM.

And the TGI (UACC-257 melanoma)?
Its TGI is > 100 µM.

What about the TGI (SK-MEL-5 melanoma) of the same compound?
The TGI was > 100 µM.

What about the TGI (HOP-62 NSCLC) of the same compound?
The TGI was > 100 µM.

What about the TGI (IGROV1 ovarian) of the same compound?
The TGI was > 100 µM.

And the TGI (U251 CNS)?
The TGI was > 100 µM.

What about the TGI (SNB-19 CNS) of the same compound?
Its TGI is > 100 µM.
